Data as given in ChEMBL document CHEMBL1138444 (J Med Chem, 2009).

Tests used:
[1] = organism: Mus musculus; experiment: animal or person; settings: NSA, ip, read-out: INH
[2] = organism: Rattus norvegicus; experiment: animal or person; settings: Sprague-Dawley, po, read-out: INH
[3] = organism: Mus musculus; experiment: animal or person; settings: NSA, ip, read-out: INH; remark: listed apart in the source
[4] = in vitro; settings: human, microsomes
[5] = in vitro; settings: rat, microsomes
[6] = physchem; settings: polyethylene glycol
[7] = organism: Rattus norvegicus; settings: in vivo
[8] = in vivo; settings: rat, po
[9] = in vivo; settings: rat
[10] = in vivo; settings: rat; remark: listed apart in the source
[11] = in vivo; settings: rat; remark: listed apart in the source
[12] = in vivo; settings: rat, brain and plasma, ip

**Q.** Which results are given for `CC(C)CNC(=O)c1ccc2c(c1)N=C(c1ccc(Cl)s1)c1ccccc1S2`?
**A.** inhibition in vivo at 3 mg/kg [1]: 73%; inhibition in vivo at 10 mg/kg [2]: 54%

**Q.** Which inhibition in vivo at 3 mg/kg [1] does the source give for `CN/C(=N\S(=O)(=O)c1ccc(Cl)cc1)N1C[C@H](c2ccccc2)C(c2ccc(Cl)cc2)=N1` (racemic) [IBIPINABANT] here?
**A.** Its inhibition in vivo at 3 mg/kg is 82%.

**Q.** What about the inhibition in vivo at 1 mg/kg [3] of the same molecule?
**A.** Its inhibition in vivo at 1 mg/kg is 51%.

**Q.** What does the source list for `Cc1c(C(=O)NN2CCCCC2)nn(-c2ccc(Cl)cc2Cl)c1-c1ccc(Cl)cc1` [RIMONABANT]?
**A.** microsomal CLint [4]: 41 µL/min/mg; microsomal CLint [5]: 159 µL/min/mg; inhibition in vivo at 1 mg/kg [3]: 70%; inhibition in vivo at 10 mg/kg [2]: 55%

**Q.** What does the source list for `CCCCNC(=O)c1ccc2c(c1)N=C(c1ccc(Cl)c(Cl)c1)c1ccccc1S2`?
**A.** microsomal CLint [5]: 32 µL/min/mg; solubility [6]: > 14 mg/mL; inhibition in vivo at 3 mg/kg [1]: 58%

**Q.** For `O=C(NCc1cccc(Cl)c1)c1ccc2c(c1)N=C(N1CCCCC1)c1ccccc1S2`, which microsomal CLint [4] is on record?
**A.** The microsomal CLint was 265 µL/min/mg.

**Q.** What about the microsomal CLint [5] of the same molecule?
**A.** Its microsomal CLint is 644 µL/min/mg.

**Q.** With `O=C(NN1CCCCC1)c1ccc2c(c1)N=C(C1CCCCC1)c1ccccc1S2` as the molecule, how does the clearance [7] read?
**A.** The clearance was 0.442 L/h/kg.

**Q.** What about the bioavailability [8] of the same molecule?
**A.** The bioavailability was 13%.

**Q.** What about the half-life [9] of the same molecule?
**A.** The half-life was 2.1 h.

**Q.** What about the Cmax [10] of the same molecule?
**A.** Its Cmax is 0.651 µM.

**Q.** And the Tmax [11]?
**A.** Its Tmax is 0.5 h.

**Q.** What about the Kp [12] of the same molecule?
**A.** Its Kp is 4.

**Q.** What about the microsomal CLint [4] of the same molecule?
**A.** Its microsomal CLint is 84 µL/min/mg.

**Q.** And the microsomal CLint [5]?
**A.** Its microsomal CLint is 846 µL/min/mg.

**Q.** For `CCCC1=Nc2cc(C(=O)NC3CCN(C(=O)OCC)CC3)ccc2Sc2ccccc21`, which microsomal CLint [4] is on record?
**A.** Its microsomal CLint is 279 µL/min/mg.

**Q.** And the microsomal CLint [5]?
**A.** The microsomal CLint was 539 µL/min/mg.

**Q.** Which microsomal CLint [4] does the source give for `O=C(NCc1cccc(Cl)c1)c1ccc2c(c1)N=C(N1CCC(F)(F)CC1)c1ccccc1S2` here?
**A.** Its microsomal CLint is 40 µL/min/mg.

**Q.** What about the microsomal CLint [5] of the same molecule?
**A.** The microsomal CLint was 66 µL/min/mg.

**Q.** Which clearance [7] does the source give for `CCCCNC(=O)c1ccc2c(c1)N=C(c1ccc(Cl)cc1)c1ccccc1S2` here?
**A.** Its clearance is 0.0306 L/h/kg.

**Q.** And the bioavailability [8]?
**A.** Its bioavailability is 25%.

**Q.** And the half-life [9]?
**A.** The half-life was 5.8 h.

**Q.** What about the Cmax [10] of the same molecule?
**A.** The Cmax was 0.677 µM.

**Q.** What about the Tmax [11] of the same molecule?
**A.** Its Tmax is 6 h.

**Q.** And the microsomal CLint [4]?
**A.** Its microsomal CLint is 24 µL/min/mg.

**Q.** What about the microsomal CLint [5] of the same molecule?
**A.** The microsomal CLint was 89 µL/min/mg.

**Q.** And the solubility [6]?
**A.** The solubility was > 3.7 mg/mL.

**Q.** And the inhibition in vivo at 3 mg/kg [1]?
**A.** The inhibition in vivo at 3 mg/kg was 82%.

**Q.** What about the inhibition in vivo at 1 mg/kg [3] of the same molecule?
**A.** Its inhibition in vivo at 1 mg/kg is 71%.

**Q.** And the inhibition in vivo at 10 mg/kg [2]?
**A.** Its inhibition in vivo at 10 mg/kg is 69%.

**Q.** For `CCCCNC(=O)c1ccc2c(c1)N=C(c1ccc(F)c(Cl)c1)c1ccccc1S2`, which microsomal CLint [4] is on record?
**A.** Its microsomal CLint is 16 µL/min/mg.

**Q.** And the microsomal CLint [5]?
**A.** The microsomal CLint was 58 µL/min/mg.

**Q.** What about the solubility [6] of the same molecule?
**A.** Its solubility is > 13 mg/mL.

**Q.** What about the inhibition in vivo at 3 mg/kg [1] of the same molecule?
**A.** Its inhibition in vivo at 3 mg/kg is 94%.

**Q.** And the inhibition in vivo at 1 mg/kg [3]?
**A.** The inhibition in vivo at 1 mg/kg was 70%.

**Q.** And the inhibition in vivo at 10 mg/kg [2]?
**A.** Its inhibition in vivo at 10 mg/kg is 59%.
